Data published in the kinase profiling compilation of Christmann-Franck et al. (2016).

Legend:
Experiment in all cases: KINOMEscan competition binding
Conditions in all cases: compound 10.0 µM
ACVR2B (human) = ACVR2B (human) (UniProt Q13705)
AXL (human) = AXL (human) (UniProt P30530)
CDC42BPA (human) = CDC42BPA (human) (UniProt Q5VT25)
CDK14 (human) = CDK14 (human) (UniProt O94921)
CDK7 (human) = CDK7 (human) (UniProt P50613)
CDKL2 (human) = CDKL2 (human) (UniProt Q92772)
CSNK1D (human) = CSNK1D (human) (UniProt P48730)
CSNK1E (human) = CSNK1E (human) (UniProt P49674)
CSNK1G1 (human) = CSNK1G1 (human) (UniProt Q9HCP0)
CSNK1G3 (human) = CSNK1G3 (human) (UniProt Q9Y6M4)
DAPK2 (human) = DAPK2 (human) (UniProt Q9UIK4)
Chain of DAPK2 (human) (Q9UIK4 whole entry, looked up): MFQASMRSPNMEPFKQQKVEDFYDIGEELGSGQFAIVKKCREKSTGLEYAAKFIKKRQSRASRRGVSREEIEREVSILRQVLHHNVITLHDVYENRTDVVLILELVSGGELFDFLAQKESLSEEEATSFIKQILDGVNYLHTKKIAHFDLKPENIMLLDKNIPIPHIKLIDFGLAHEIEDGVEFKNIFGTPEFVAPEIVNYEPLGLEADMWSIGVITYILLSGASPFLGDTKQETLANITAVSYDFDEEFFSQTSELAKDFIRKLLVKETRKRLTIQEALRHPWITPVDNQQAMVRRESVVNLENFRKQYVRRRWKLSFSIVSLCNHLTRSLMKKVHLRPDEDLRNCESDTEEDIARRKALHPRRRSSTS

DYRK2 (human) = DYRK2 (human) (UniProt Q92630)
EPHA8 (human) = EPHA8 (human) (UniProt P29322)
EPHB2 (human) = EPHB2 (human) (UniProt P29323)
Chain of EPHB2 (human) (P29323 whole entry, looked up): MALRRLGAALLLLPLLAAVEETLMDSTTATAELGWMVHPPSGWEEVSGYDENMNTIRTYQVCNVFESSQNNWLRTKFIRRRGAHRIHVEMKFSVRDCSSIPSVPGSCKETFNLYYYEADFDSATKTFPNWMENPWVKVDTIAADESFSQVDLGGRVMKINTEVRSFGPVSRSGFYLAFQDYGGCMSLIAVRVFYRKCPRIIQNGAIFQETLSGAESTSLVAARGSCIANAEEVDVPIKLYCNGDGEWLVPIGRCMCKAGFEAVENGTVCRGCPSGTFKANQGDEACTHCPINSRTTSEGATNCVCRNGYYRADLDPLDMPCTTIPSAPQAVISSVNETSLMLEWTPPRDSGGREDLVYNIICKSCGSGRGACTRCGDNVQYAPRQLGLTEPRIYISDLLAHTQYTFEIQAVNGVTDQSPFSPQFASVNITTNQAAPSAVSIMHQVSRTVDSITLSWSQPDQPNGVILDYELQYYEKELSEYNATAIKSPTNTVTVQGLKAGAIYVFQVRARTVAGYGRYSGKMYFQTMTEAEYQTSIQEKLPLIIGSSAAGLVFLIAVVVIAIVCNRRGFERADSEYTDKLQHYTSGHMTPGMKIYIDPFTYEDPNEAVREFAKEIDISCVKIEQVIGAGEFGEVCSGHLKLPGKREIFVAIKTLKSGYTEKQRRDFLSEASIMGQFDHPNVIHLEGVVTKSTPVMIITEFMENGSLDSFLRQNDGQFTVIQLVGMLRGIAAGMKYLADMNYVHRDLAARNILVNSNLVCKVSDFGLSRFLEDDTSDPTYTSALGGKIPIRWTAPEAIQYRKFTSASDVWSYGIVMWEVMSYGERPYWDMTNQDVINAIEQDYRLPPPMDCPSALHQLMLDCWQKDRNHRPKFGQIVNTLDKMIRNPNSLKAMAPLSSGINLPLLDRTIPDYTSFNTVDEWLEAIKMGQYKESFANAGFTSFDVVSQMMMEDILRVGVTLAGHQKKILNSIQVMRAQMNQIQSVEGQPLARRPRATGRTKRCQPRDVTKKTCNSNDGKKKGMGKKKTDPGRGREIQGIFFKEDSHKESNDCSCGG

ERBB2 (human) = ERBB2 (human) (UniProt P04626)
Chain of ERBB2 (human) (P04626 whole entry, looked up): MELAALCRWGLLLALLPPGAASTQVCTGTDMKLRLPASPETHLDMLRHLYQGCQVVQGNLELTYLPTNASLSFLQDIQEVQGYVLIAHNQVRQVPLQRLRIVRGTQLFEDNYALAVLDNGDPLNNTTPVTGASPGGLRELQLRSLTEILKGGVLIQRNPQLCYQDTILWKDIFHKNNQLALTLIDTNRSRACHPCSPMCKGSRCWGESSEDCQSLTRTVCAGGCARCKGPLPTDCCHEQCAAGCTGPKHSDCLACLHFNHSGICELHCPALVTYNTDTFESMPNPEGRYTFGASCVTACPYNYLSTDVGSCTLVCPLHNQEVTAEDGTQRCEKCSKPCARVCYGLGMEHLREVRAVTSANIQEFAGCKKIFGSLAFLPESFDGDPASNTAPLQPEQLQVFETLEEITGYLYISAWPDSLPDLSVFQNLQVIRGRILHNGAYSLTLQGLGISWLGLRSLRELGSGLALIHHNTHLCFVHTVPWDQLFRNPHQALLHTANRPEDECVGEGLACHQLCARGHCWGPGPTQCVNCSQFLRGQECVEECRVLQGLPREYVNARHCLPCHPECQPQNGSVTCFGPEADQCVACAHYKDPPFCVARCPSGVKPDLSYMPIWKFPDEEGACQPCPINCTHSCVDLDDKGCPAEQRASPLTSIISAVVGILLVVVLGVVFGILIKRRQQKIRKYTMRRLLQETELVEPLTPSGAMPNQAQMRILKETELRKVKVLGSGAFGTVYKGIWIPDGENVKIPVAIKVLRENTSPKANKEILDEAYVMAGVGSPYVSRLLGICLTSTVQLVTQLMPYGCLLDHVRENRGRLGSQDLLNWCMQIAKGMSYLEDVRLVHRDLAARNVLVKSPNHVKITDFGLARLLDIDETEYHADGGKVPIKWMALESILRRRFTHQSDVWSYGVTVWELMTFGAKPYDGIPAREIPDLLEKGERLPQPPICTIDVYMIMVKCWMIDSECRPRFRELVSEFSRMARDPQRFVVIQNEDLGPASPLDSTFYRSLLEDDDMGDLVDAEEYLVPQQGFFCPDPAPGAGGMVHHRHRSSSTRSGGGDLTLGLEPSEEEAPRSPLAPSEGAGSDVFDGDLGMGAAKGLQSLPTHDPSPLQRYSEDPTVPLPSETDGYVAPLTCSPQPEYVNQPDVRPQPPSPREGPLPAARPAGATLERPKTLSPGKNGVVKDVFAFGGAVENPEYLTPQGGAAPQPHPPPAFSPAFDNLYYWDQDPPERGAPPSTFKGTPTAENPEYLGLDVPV

ERBB4 (human) = ERBB4 (human) (UniProt Q15303)
FER (human) = FER (human) (UniProt P16591)
FGFR3 (human) = FGFR3 (human) (UniProt P22607)
IGF1R (human) = IGF1R (human) (UniProt P08069)
INSRR (human) = INSRR (human) (UniProt P14616)
LYN (human) = LYN (human) (UniProt P07948)
MAPK11 (human) = MAPK11 (human) (UniProt Q15759)
MARK2 (human) = MARK2 (human) (UniProt Q7KZI7)
MERTK (human) = MERTK (human) (UniProt Q12866)
MINK1 (human) = MINK1 (human) (UniProt Q8N4C8)
NLK (human) = NLK (human) (UniProt Q9UBE8)
OXSR1 (human) = OXSR1 (human) (UniProt O95747)
PAK2 (human) = PAK2 (human) (UniProt Q13177)
PIK3C2B (human) = PIK3C2B (human) (UniProt O00750)
PIK3CB (human) = PIK3CB (human) (UniProt P42338)
PRKAA1 (human) = PRKAA1 (human) (UniProt Q13131)
PRPF4B (human) = PRPF4B (human) (UniProt Q13523)
RET (human) = RET (human) (UniProt P07949)
RIOK2 (human) = RIOK2 (human) (UniProt Q9BVS4)
Chain of RIOK2 (human) (Q9BVS4 whole entry, looked up): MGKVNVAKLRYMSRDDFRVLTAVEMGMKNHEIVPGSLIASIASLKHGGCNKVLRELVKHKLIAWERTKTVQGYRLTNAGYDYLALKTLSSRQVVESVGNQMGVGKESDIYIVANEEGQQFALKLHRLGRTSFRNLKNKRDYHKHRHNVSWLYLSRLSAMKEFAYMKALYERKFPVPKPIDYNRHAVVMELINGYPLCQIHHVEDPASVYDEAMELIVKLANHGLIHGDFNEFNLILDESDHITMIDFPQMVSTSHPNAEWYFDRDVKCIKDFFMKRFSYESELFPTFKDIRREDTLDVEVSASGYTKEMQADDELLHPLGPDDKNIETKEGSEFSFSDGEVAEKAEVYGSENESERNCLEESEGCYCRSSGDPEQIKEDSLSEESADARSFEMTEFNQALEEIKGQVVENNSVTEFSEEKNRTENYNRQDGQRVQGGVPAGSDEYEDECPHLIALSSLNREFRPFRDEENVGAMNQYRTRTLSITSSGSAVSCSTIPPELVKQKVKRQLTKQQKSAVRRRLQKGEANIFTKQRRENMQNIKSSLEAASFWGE

STK33 (human) = STK33 (human) (UniProt Q9BYT3)
TESK1 (human) = TESK1 (human) (UniProt Q15569)
TLK2 (human) = TLK2 (human) (UniProt Q86UE8)
MAP3K11 (human) = MAP3K11 (human) (UniProt Q16584)

Chain of CDC42BPA (human) (Q5VT25 whole entry, looked up): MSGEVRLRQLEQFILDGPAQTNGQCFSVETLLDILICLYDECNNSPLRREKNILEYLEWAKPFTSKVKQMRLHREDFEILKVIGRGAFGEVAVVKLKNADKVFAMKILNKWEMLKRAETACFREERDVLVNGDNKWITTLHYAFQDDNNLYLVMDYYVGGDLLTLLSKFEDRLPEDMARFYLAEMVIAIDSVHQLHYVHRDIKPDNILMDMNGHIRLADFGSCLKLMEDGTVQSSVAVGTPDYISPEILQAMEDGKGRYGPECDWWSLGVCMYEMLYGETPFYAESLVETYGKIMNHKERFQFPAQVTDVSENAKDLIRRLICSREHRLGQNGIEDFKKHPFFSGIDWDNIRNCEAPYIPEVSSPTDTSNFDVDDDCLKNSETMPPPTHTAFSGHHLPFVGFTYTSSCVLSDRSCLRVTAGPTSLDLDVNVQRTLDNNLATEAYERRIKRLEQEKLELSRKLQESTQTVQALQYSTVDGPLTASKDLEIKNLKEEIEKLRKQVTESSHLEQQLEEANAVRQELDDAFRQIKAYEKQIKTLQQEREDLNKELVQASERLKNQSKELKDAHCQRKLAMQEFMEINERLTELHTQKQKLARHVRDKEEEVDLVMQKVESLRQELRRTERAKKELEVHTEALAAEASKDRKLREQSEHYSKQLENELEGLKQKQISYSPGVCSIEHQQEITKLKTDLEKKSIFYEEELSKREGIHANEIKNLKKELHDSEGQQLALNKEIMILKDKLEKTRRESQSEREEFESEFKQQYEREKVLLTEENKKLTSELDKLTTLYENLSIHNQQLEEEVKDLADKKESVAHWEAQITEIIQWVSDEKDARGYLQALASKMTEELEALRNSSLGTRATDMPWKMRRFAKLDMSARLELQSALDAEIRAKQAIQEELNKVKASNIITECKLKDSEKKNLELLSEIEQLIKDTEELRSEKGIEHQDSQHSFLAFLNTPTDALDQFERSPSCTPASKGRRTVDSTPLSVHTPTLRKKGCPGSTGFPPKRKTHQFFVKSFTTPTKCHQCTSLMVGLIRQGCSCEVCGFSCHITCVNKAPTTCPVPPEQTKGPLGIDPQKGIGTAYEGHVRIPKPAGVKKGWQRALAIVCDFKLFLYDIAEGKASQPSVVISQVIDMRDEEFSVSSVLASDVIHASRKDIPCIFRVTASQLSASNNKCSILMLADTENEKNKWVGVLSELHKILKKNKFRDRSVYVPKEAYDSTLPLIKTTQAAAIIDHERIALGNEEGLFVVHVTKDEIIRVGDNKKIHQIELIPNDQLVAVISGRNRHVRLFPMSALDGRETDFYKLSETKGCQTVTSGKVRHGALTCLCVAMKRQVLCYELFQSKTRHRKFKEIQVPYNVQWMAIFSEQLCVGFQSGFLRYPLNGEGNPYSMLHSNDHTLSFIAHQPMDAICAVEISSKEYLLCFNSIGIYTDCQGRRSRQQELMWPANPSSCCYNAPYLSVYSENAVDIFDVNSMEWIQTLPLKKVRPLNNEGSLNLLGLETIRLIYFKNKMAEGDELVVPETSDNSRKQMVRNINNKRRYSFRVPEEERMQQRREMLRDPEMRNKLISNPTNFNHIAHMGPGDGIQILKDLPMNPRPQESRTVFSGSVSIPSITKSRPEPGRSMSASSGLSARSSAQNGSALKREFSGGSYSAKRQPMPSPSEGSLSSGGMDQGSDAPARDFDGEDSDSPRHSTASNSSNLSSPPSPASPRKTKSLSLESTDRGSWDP

| Structure (SMILES) | kinase still bound, per cent of control (ACVR2B (human)) | kinase still bound, per cent of control (AXL (human)) | kinase still bound, per cent of control (CDC42BPA (human)) | kinase still bound, per cent of control (CDK14 (human)) | kinase still bound, per cent of control (CDK7 (human)) | kinase still bound, per cent of control (CDKL2 (human)) | kinase still bound, per cent of control (CSNK1D (human)) | kinase still bound, per cent of control (CSNK1E (human)) | kinase still bound, per cent of control (CSNK1G1 (human)) | kinase still bound, per cent of control (CSNK1G3 (human)) | kinase still bound, per cent of control (DAPK2 (human)) | kinase still bound, per cent of control (EPHA8 (human)) | kinase still bound, per cent of control (EPHB2 (human)) | kinase still bound, per cent of control (ERBB2 (human)) | kinase still bound, per cent of control (ERBB4 (human)) | kinase still bound, per cent of control (FER (human)) | kinase still bound, per cent of control (FGFR3 (human)) | kinase still bound, per cent of control (IGF1R (human)) | kinase still bound, per cent of control (INSRR (human)) | kinase still bound, per cent of control (LYN (human)) | further results |
| --- | --- | --- | --- | --- | --- | --- | --- | --- | --- | --- | --- | --- | --- | --- | --- | --- | --- | --- | --- | --- | --- |
| CS(=O)(=O)N1CCN(Cc2cc3nc(-c4cccc5[nH]ncc45)nc(N4CCOCC4)c3s2)CC1 | 100% | 100% | 100% | 100% | 100% | 100% | 100% | 100% | 100% | 100% | 100% | 100% | 100% | 100% | 100% | 100% | 100% | 100% | 100% | 100% | kinase still bound, per cent of control (DYRK2 (human)): 100%; kinase still bound, per cent of control (MAPK11 (human)): 100%; kinase still bound, per cent of control (MARK2 (human)): 100%; kinase still bound, per cent of control (MERTK (human)): 100%; kinase still bound, per cent of control (MINK1 (human)): 100%; kinase still bound, per cent of control (NLK (human)): 100%; kinase still bound, per cent of control (OXSR1 (human)): 100%; kinase still bound, per cent of control (PAK2 (human)): 100%; kinase still bound, per cent of control (PIK3C2B (human)): 22%; kinase still bound, per cent of control (PIK3CB (human)): 0.1%; kinase still bound, per cent of control (PRKAA1 (human)): 100%; kinase still bound, per cent of control (PRPF4B (human)): 100%; kinase still bound, per cent of control (RET (human)): 100%; kinase still bound, per cent of control (RIOK2 (human)): 100%; kinase still bound, per cent of control (STK33 (human)): 100%; kinase still bound, per cent of control (TESK1 (human)): 100%; kinase still bound, per cent of control (TLK2 (human)): 100% |
| COc1cc(N2CCN(C)CC2)ccc1Nc1ncc2c(n1)N(C)c1ccccc1C(=O)N2C | 100% | 100% | 100% | 100% | 100% | 100% | 100% | 100% | 100% | 100% | 100% | 100% | 100% | 100% | 100% | 32% | 100% | 100% | 100% | 100% | kinase still bound, per cent of control (DYRK2 (human)): 100%; kinase still bound, per cent of control (MAP3K11 (human)): 100%; kinase still bound, per cent of control (MAPK11 (human)): 100%; kinase still bound, per cent of control (MARK2 (human)): 100%; kinase still bound, per cent of control (MERTK (human)): 100%; kinase still bound, per cent of control (MINK1 (human)): 100%; kinase still bound, per cent of control (NLK (human)): 100%; kinase still bound, per cent of control (OXSR1 (human)): 100%; kinase still bound, per cent of control (PAK2 (human)): 100%; kinase still bound, per cent of control (PIK3C2B (human)): 100%; kinase still bound, per cent of control (PIK3CB (human)): 100%; kinase still bound, per cent of control (PRKAA1 (human)): 100%; kinase still bound, per cent of control (PRPF4B (human)): 100%; kinase still bound, per cent of control (RET (human)): 100%; kinase still bound, per cent of control (RIOK2 (human)): 100%; kinase still bound, per cent of control (STK33 (human)): 8.8%; kinase still bound, per cent of control (TESK1 (human)): 100%; kinase still bound, per cent of control (TLK2 (human)): 100% |
| CNC(=O)c1ccc(Nc2cc(Nc3ccccc3S(=O)(=O)C(C)C)c3cc[nH]c3n2)nc1 | 100% | 1.3% | 100% | 100% | 1.8% | 100% | 100% | 29% | 16% | 22% | 100% | 100% | 100% | 100% | 100% | 1.1% | 18% | 2.2% | 3.2% | 22% | kinase still bound, per cent of control (MAP3K11 (human)): 7.2%; kinase still bound, per cent of control (MAPK11 (human)): 100%; kinase still bound, per cent of control (MARK2 (human)): 33%; kinase still bound, per cent of control (MERTK (human)): 0.25%; kinase still bound, per cent of control (MINK1 (human)): 100%; kinase still bound, per cent of control (NLK (human)): 100%; kinase still bound, per cent of control (PAK2 (human)): 100%; kinase still bound, per cent of control (PIK3C2B (human)): 100%; kinase still bound, per cent of control (PIK3CB (human)): 100%; kinase still bound, per cent of control (PRKAA1 (human)): 4.6%; kinase still bound, per cent of control (RET (human)): 3.8%; kinase still bound, per cent of control (RIOK2 (human)): 13%; kinase still bound, per cent of control (STK33 (human)): 1.4%; kinase still bound, per cent of control (TESK1 (human)): 30%; kinase still bound, per cent of control (TLK2 (human)): 100% |
